This is an account of results in patent US20080200403A1, “9A-Carbamoyl and Thiocarbamoyl Azalides with Anti-Inflammatory Activity” (GLAXOSMITHKLINE, priority 2005, published 2008).

Format in all cases: cell-based
Conditions in all cases: PBL

The test system of one test is IL-6. In words: Inhibition of IL-6 production by stimulated human peripheral blood leukocytes in vitro. The method, then:
(§1) Test substances used in in vitro experiments were dissolved in dimethyl sulfoxide (DMSO) (Kemika, Croatia) at concentrations of 50 mM and 10 mM, and were further diluted to final concentrations of 50 μM and 10 μM in 1 mL Dulbecco's modified Eagle medium (DMEM) supplemented with 1% heat inactivated fetal bovine serum (FBS), 1% L-glutamine, 50 U/ml penicillin, 50 μg/ml streptomycin and 2.5 μg/mL Fungizone (amphotericin B). Media and all media supplements were purchased from Gibco, Australia, except the FBS was purchased from Sigma, USA.
(§2) Peripheral blood leukocytes (PBL) were obtained from venous blood of healthy volunteers by sedimentation on 2% dextran T-500 (Amersham Biosciences, USA) and subsequent centrifugations of leukocyte rich plasma.
(§3) Peripheral blood leukocytes (PBL), isolated as described above, were seeded in a 48-well plate at a concentration of 3 to 5×10^6 cell per well in culture medium consisting of RPMI 1640 medium (Institute of Immunology, Croatia) supplemented with 10% heat-inactivated fetal calf serum (FCS, Biowhittaker, USA), 100 U/ml penicillin (Gibco, Australia), 100 μg/ml streptomycin (Gibco, Australia) and 2 mM L-glutamine (Gibco, Australia), and preincubated with the test compounds for 2 h at 37° C., in an atmosphere of 5% CO2, and 90% humidity. Then, stimuli (Sigma, USA) were added to a final concentration of 2 μg/mL lipopolysaccharide (LPS), 1 μg/mL phorbol 12-myristate 13-acetate (PMA) or 120 μg/mL zymosan. Samples were incubated overnight under conditions described above. At the end of incubation, the supernatants were transferred to eppendorf tubes and centrifuged for 10 min at 1500×g. Concentrations of human TNF-α, IL-1β, IL-6 and IL-8 were determined in cell supernatants by sandwich ELISA, using capture and detection antibodies (R&D Systems, Minneapolis, Minn.) according to the manufacturer's recommendations.
(§4) Inhibition (as percentage) was calculated using the following formula: % inhibition=(1−concentration of cytokines in sample/concentration of cytokines in positive control)×100. The positive control refers to stimulated samples, not treated with substances.

The subject of a further test is IL-1α. The experiment in a line: Inhibition of IL-1 production by stimulated human peripheral blood leukocytes in vitro.
The next test deals with IL-8. In words: Inhibition of IL-8 production by stimulated human peripheral blood leukocytes in vitro. The method, then: as §1, §2, §3, §4
The next test has as its system TNF-α. The experiment in a line: Inhibition of TNF-α production by stimulated human peripheral blood leukocytes in vitro. The method, then: as §1, §2, §3, §4
[1] abbreviates: zymosan stimulated, compound 10 μM.
Where [2] appears, read: zymosan stimulated, compound 50 μM.

SMILES strings stand for the structures.

In the case of `CC[C@H]1OC(=O)[C@H](C)[C@@H](O[C@H]2C[C@@](C)(OC)[C@@H](O)[C@H](C)O2)[C@H](C)[C@@H](O[C@@H]2O[C@H](C)C[C@H](N(C)C)[C@H]2O)[C@](C)(O)C[C@@H](C)CN(C(=S)Nc2ccc(Br)cc2)[C@H](C)[C@@H](O)[C@]1(C)O` [Compound 7], the “Percentage of inhibition of IL-6 production” value worked out at 54% in the test on IL-6 (LPS stimulated, compound 10 μM); 100% with IL-6 (LPS stimulated, compound 50 μM); 65% in the test with IL-6 (PMA stimulated, compound 10 μM); 90% in the test on IL-6 (PMA stimulated, compound 50 μM); 73% in the test on IL-6 (setting [1]); 100% in the test with IL-6 (setting [2]). For the same compound, the “Percentage of inhibition of IL-1α production” value with IL-1α (LPS stimulated, compound 10 μM) was 71%; with IL-1α (LPS stimulated, compound 50 μM) it was 89%; in the test with IL-1α (PMA stimulated, compound 10 μM), 0%; in the test with IL-1α (PMA stimulated, compound 50 μM), 79%; with IL-1α (setting [1]) it was 96%; with IL-1α (setting [2]) it was 83%. Also, the “Percentage of inhibition of IL-8 production” value in the test with IL-8 (LPS stimulated, compound 10 μM) is 39%; with IL-8 (LPS stimulated, compound 50 μM) it was 100%; with IL-8 (PMA stimulated, compound 10 μM), 40%; with IL-8 (PMA stimulated, compound 50 μM), 100%; with IL-8 (setting [1]), 61%; with IL-8 (setting [2]), 99%. The “Percentage of inhibition of TNF-α production” value with TNF-α (LPS stimulated, compound 10 μM) was found to be 0%; in the test with TNF-α (LPS stimulated, compound 50 μM) it was 100%; in the test on TNF-α (PMA stimulated, compound 10 μM), 95%; in the test with TNF-α (PMA stimulated, compound 50 μM), 100%; in the test with TNF-α (setting [1]), 69%; in the test on TNF-α (setting [2]), 100%.

For `CC[C@H]1OC(=O)[C@H](C)[C@@H](O[C@H]2C[C@@](C)(OC)[C@@H](O)[C@H](C)O2)[C@H](C)[C@@H](O[C@@H]2O[C@H](C)C[C@H](N(C)C)[C@H]2O)[C@](C)(O)C[C@@H](C)CN(C(=O)Nc2ccc(Cl)c(C(F)(F)F)c2)[C@H](C)[C@@H](O)[C@]1(C)O` [Compound 10], the “Percentage of inhibition of IL-6 production” value in the test on IL-6 (LPS stimulated, compound 10 μM) is recorded as 63%; in the test on IL-6 (LPS stimulated, compound 50 μM) it was 100%; in the test on IL-6 (PMA stimulated, compound 10 μM), 40%; with IL-6 (PMA stimulated, compound 50 μM), 100%; with IL-6 (setting [1]), 76%; in the test with IL-6 (setting [2]) it was 100%. Besides, the “Percentage of inhibition of IL-1α production” value in the test on IL-1α (LPS stimulated, compound 10 μM) worked out at 0%; with IL-1α (LPS stimulated, compound 50 μM), 100%; in the test with IL-1α (PMA stimulated, compound 10 μM), 0%; in the test on IL-1α (PMA stimulated, compound 50 μM), 100%; in the test with IL-1α (setting [1]), 0%; in the test on IL-1α (setting [2]), 96%. Further, the “Percentage of inhibition of IL-8 production” value with IL-8 (LPS stimulated, compound 10 μM) came out at 55%; in the test with IL-8 (LPS stimulated, compound 50 μM), 93%; in the test with IL-8 (PMA stimulated, compound 10 μM), 75%; with IL-8 (PMA stimulated, compound 50 μM), 100%; in the test with IL-8 (setting [1]), 82%; in the test with IL-8 (setting [2]) it was 97%. Besides, the “Percentage of inhibition of TNF-α production” value in the test on TNF-α (LPS stimulated, compound 10 μM) is 32%; in the test with TNF-α (LPS stimulated, compound 50 μM), 99%; with TNF-α (PMA stimulated, compound 10 μM) it was 0%; with TNF-α (PMA stimulated, compound 50 μM), 100%; in the test with TNF-α (setting [1]), 69%; in the test with TNF-α (setting [2]) it was 99%.

Regarding `CC[C@H]1OC(=O)[C@H](C)C2O[C@@](C)(C[C@@H](C)CN(C(=O)NCc3ccccc3)[C@H](C)[C@@H](O)[C@]1(C)O)[C@H](O[C@@H]1O[C@H](C)C[C@H](N(C)C)[C@H]1O)[C@H]2C` [Compound 11], the “Percentage of inhibition of IL-6 production” value in the test on IL-6 (LPS stimulated, compound 10 μM) is given as 0%; with IL-6 (LPS stimulated, compound 50 μM), 66%; in the test on IL-6 (setting [1]) it was 72%; in the test on IL-6 (setting [2]) it was 100%. Also, the “Percentage of inhibition of IL-1α production” value in the test on IL-1α (LPS stimulated, compound 10 μM) came to 48%; in the test on IL-1α (LPS stimulated, compound 50 μM) it was 38%; in the test on IL-1α (setting [1]), 85%; with IL-1α (setting [2]), 77%. For the same compound, the “Percentage of inhibition of IL-8 production” value with IL-8 (LPS stimulated, compound 10 μM) is given as 0%; in the test on IL-8 (LPS stimulated, compound 50 μM) it was 52%; with IL-8 (setting [1]), 23%; in the test with IL-8 (setting [2]), 75%. For the same compound, the “Percentage of inhibition of TNF-α production” value with TNF-α (LPS stimulated, compound 10 μM) came to 0%; in the test with TNF-α (LPS stimulated, compound 50 μM) it was 51%; with TNF-α (setting [1]) it was 13%; in the test on TNF-α (setting [2]), 88%.
